Assay [1] concerns the target FnLpxA (Francisella tularensis, UniProt A0Q7Y0). The following applies: 20 μM R,S-3-hydroxypalmitoyl-ACP, 100 μM [α-32P]UDP-GlcNAc, 40 mM HEPES pH 7.4, 100 mM NaCl, 30 °C; labelled compound.
Assay [2] deals with Francisella novicida LpxA (UDP-N-acetylglucosamine acyltransferase), C-terminally His6-tagged (Francisella novicida). Kind of assay: SEC.

From article PMC5021990 (Biochemical and biophysical research communications, 2016) come the findings set out here.

In the case of `CC(=O)N[C@H]1[C@@H](OP(=O)(O)OP(=O)(O)OC[C@H]2O[C@@H](n3ccc(=O)[nH]c3=O)[C@H](O)[C@@H]2O)O[C@H](CO)[C@@H](O)[C@@H]1O` [UDP-GlcNAc], in assay [1], the “TLC radioassay of acyl transfer, PhosphorImager” value was “purified FnLpxA transfers a 3-hydroxypalmitoyl group from 3-hydroxypalmitoyl-ACP to the 3-OH of UDP-GlcNAc”. For the compound “Francisella novicida LpxA (UDP-N-acetylglucosamine acyltransferase), C-terminally His6-tagged (enzyme)”, the stoichiometry N in assay [2] came out at 3.
